We go through 1 sequence from US8828929B2 (priority 2008, dated 2014).

Where no end group is shown, it is not given here.

For assay [1], the target named is T1, HLA-A*0201 (Homo sapiens, UniProt P04439, /I218V/L300P/L318F/N151K/N90K/P208A/P217A/Q86G/Q94H/R138H/R169H/T345S).
T1 construct: endogenous in cells; host or cells: T2 cells (human lymphoid, TAP-deficient)
The experiment in a line: cell-based. The assay is classed as binding.

Assay [2] concerns the target T2, HLA-A*0201 (Homo sapiens, UniProt P04439, D140Y/D185E/D98H/E176V/E277Q/G131W/G231S/I119V/I121R/I166T/I218V/L300P/L318F/N151K/N90K/P208A/P217A/Q86G/Q94H/R138H/R169H/T345S).
T2 construct: endogenous in cells; host or cells: T2 cells (human lymphoid, TAP-deficient)
As to the kind of experiment: cell-based. The assay is classed as binding.

The test system of assay [3] is peptide-specific CTLs (IFN-γ-positive cells among CD8-positive cells). More on the design: species or system HLA-A2 transgenic mouse. To be noted: mouse, in vivo.
Assay [4] shares this test system. More on the design: species or system HLA-A2 transgenic mouse. To be noted: mouse, in vivo. The source holds these as a separate data set.
Assay [5] relates to target cells pulsed with the peptide. Also on record: species or system HLA-A2 transgenic mouse. The conditions noted are these: mouse, in vivo.

On to ALSGVFCGV [pp1a-2990], for which the Affinity result at HLA-A*0201 [1] is “High (key: High: less than 100 μM; Medium: 100 to 200 μM; Low: more than 200 μM)”. Further, the EC50 at HLA-A*0201 [2] came to 6.2 µM. The “induction of IFN-γ-positive cells among CD8-positive cells” value in assay [3] was “significantly induced IFN-γ-positive cells among CD8-positive cells”. In addition, the “ICS (% in CD8+ cells)” value in assay [3] (iv) is given as “*0.16%”. In assay [4], the CTL induction activity result was “higher than that of the CTL epitope peptide of the Spike protein”. Further, in assay [5], the CTL response activity result was “high CTL response activities” and the “peptide-specific lysis rates (%) of the target cells by CTLs” value came to 73.4%.

By EC50 is commonly meant the concentration that produces a half-maximal response.
